A short description of the data set: Pharmacokinetics in rats. Format: in vivo. The conditions noted are these: Sprague-Dawley, rat, serum, ip, intraperitoneal 1.0 mg/kg, male SD rats. As to the method:
Compound Z36-MP5 was evaluated in a pharmacokinetic study in male Sprague-Dawley (SD) rats following intraperitoneal injection of Z36-MP5 at 1.0 mg/kg as a solution in 5% DMSO, 30% PEG400, and 65% corn oil. Blood was collected at 0.25, 0.5, 1, 2, 4, 8, and 24 h following intraperitoneal injection. The blood samples were placed in wet ice, and serum was collected after centrifugation. Serum samples were frozen and stored at −80 °C. The serum samples were analyzed utilizing HPLC-coupled tandem mass spectrometry. Values are calculated from arithmetic mean plasma concentrations (n = 3 rats per condition). Rats experiments were done according to protocols approved by the ethics committee review board of University of Arkansas for Medical Science and in accordance with the guidelines set forth by the US National Institutes of Health.

The values that follow come from paper PMC10924921, “Mi-2β promotes immune evasion in melanoma by activating EZH2 methylation” (Nature Communications, 2024).

In general, Cmax refers to the highest concentration seen after dosing. `Cn1c(=O)[nH]c2ccc(-c3cccc(C(=O)NC4CCn5ccnc5C4)c3)cc21` (centres unmarked) [Z36-MP5]: the highest concentration (Cmax) came out at 3960 ng/mL. For the same molecule, the half-life (read-out: half-life T1/2 (converted)) is 27 min.
